Laboratory results reported in patent EP2424865B1 (Boehringer Ingelheim International GmbH, priority 2009, dated 2010).
Where two headings read alike, the source gives them in different places.

Assays:
[1] = target: T1, 11β-HSD1 (Homo sapiens, UniProt P28845)
[2] = target: CYP2C9 (Homo sapiens, UniProt P11712); assay: Biological Test Example 9: CYP2C9 inhibition (Invitrogen kit, fluorogenic substrate OOMR); format: in vitro ADME
[3] = system: Plasma protein; assay: Biological Test Example 5: fraction unbound in human plasma (equilibrium dialysis); format: in vitro ADME
[4] = target: human recombinant cytochrome P450 2C9 (Homo sapiens, UniProt P11712); assay: Biological Test Example 7: CYP2C9 inhibition ([O-methyl-14C]-Naproxen O-demethylation)
[5] = target: human recombinant cytochrome P450 2C19 (Homo sapiens, UniProt P33261); assay: Biological Test Example 8: CYP2C19 inhibition ([N-methyl-14C]-Diazepam N-demethylation)
[6] = target: human recombinant cytochrome P450 3A4 (Homo sapiens, UniProt P08684)
[7] = target: T1, 11β-HSD1; assay: biochemical; conditions: read-out: Average % control inhibition at 100 nM
[8] = read-out: Biological Test Example 1 IC50 Range, microsomal preparation of human 11β-HSD1, SPA
[9] = read-out: Biological Test Example 1 IC50, Examples
[10] = Invitrogen kit, fluorogenic substrate OOMR

Chain of human recombinant cytochrome P450 2C19 (P33261 whole entry): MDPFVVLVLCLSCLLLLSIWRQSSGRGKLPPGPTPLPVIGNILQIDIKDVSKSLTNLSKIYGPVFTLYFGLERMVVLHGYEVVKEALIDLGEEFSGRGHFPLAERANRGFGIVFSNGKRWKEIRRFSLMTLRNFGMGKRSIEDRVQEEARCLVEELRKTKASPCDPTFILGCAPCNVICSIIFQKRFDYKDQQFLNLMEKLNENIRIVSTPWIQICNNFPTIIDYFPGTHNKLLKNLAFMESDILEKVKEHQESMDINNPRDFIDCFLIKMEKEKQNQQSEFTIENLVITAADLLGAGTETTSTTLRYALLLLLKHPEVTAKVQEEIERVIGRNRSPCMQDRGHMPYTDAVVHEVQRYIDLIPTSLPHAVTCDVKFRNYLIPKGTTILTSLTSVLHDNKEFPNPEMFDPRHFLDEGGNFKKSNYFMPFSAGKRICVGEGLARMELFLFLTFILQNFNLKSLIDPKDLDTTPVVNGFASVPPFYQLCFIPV
Chain of human recombinant cytochrome P450 3A4 (P08684 whole entry): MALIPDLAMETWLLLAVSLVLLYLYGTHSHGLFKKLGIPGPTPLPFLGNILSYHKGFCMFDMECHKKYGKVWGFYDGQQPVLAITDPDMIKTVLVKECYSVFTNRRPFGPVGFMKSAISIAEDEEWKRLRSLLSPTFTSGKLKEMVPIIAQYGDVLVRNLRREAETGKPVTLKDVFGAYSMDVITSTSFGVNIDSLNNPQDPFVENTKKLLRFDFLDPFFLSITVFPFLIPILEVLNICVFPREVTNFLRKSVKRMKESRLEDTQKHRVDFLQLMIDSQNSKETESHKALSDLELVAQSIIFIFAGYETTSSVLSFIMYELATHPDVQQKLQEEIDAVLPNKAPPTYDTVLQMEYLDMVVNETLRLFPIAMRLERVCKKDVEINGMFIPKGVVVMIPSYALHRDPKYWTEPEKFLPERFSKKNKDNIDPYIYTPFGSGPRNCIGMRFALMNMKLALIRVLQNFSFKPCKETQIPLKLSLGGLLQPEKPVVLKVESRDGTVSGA
T1 sequence (P28845 whole entry): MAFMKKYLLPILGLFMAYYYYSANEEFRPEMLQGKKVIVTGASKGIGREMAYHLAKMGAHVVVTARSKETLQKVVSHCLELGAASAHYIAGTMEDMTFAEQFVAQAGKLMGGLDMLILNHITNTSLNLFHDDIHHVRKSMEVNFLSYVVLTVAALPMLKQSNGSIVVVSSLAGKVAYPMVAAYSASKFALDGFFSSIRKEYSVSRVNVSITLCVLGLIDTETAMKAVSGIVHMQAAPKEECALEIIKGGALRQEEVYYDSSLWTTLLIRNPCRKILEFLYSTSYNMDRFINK
Chain of human recombinant cytochrome P450 2C9 (P11712 whole entry): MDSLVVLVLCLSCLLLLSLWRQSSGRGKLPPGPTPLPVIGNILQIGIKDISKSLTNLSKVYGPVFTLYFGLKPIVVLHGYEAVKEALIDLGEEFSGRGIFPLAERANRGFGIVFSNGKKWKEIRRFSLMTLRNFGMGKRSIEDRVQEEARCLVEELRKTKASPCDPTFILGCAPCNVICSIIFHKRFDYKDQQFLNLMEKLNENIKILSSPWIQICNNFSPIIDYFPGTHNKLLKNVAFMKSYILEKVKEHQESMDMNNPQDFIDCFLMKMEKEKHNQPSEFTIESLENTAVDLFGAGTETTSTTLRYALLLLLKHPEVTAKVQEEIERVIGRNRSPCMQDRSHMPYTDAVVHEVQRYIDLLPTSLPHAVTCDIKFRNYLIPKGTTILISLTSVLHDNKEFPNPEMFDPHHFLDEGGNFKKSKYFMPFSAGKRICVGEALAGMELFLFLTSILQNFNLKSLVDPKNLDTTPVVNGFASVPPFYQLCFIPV
Chain of CYP2C9 (P11712 whole entry): as above

## C[C@@H](c1ccc(-c2ccn(C3CC3)c(=O)c2)cc1)N1CCC(CC(C)(C)O)(C2CCOCC2)OC1=O (single isomer, unassigned) [Example 91 Isomer 2]
[1]; 0.1 µM
  Biological Test Example 1 Average % inhibition at 100 nM: 13.8%
[1]; [8]
  IC50: > 0.1 µM

## C[C@@H](c1ccc(-c2ccn(C3CC3)c(=O)c2)cc1)N1CCC(CC(C)(C)C)(CC(C)(C)O)OC1=O (single isomer, unassigned) [Example 94 Isomer 2]
[1]; listed as EXAMPLE 94 Isomer 2, 0.1 µM
  Biological Test Example 1 Average % inhibition at 100 nM: 8.2%
[1]; [8]
  IC50: > 0.1 µM

## C[C@@H](c1ccc(-c2ccn(C3CC3)c(=O)c2)cc1)N1CCC(CC(C)(C)O)(C2CC(F)(F)C2)OC1=O (single isomer, unassigned) [Example 95 Isomer 2]
[1]; 0.1 µM
  Biological Test Example 1 Average % inhibition at 100 nM: 8.0%
[1]; [8]
  IC50: > 0.1 µM

## C[C@@H](c1ccc(-c2ccn(C3CC3)c(=O)c2)cc1)N1CCC(CC(C)(C)O)(C2CCOCC2)OC1=O (single isomer, unassigned; isomer 1) [91 Isomer 1]
[1]; [9]
  IC50: > 0.1 µM

## C[C@@H](c1ccc(-c2ccn(C3CC3)c(=O)c2)cc1)N1CCC(CC(C)(C)C)(CC(C)(C)O)OC1=O (single isomer, unassigned; isomer 1) [94 Isomer 1]
[1]; [9]
  IC50: > 0.1 µM

## C[C@@H](c1ccc(-c2ccn(C3CC3)c(=O)c2)cc1)N1CCC(CC(C)(C)O)(C2CC(F)(F)C2)OC1=O (single isomer, unassigned; isomer 1) [95 Isomer 1]
[1]; [9]
  IC50: > 0.1 µM

## C[C@@H](c1ccc(-c2ccn(C3CC3)c(=O)c2)cc1)N1CCC(CC(C)(C)O)(C2CCOCC2)OC1=O (single isomer, unassigned; isomer 2) [91 Isomer 2]
[1]; [9]
  IC50: > 0.1 µM

## C[C@@H](c1ccc(-c2ccc(=O)[nH]c2)cc1)N1CC[C@](CC(C)(C)O)(c2ccccc2)OC1=O [Example 1, (S)-6-(2-hydroxy-2-methytpropyl)-3-((S)-1-(4-(6-oxo-1,6-dihydropyridin-3-yl)phenyl)ethyl)-6-phenyl-1,3-oxazinan-2-one]
[2]; read-out: Biological Test Example 9 CYP2C9 IC50, comparator compounds, Invitrogen kit, fluorogenic substrate OOMR
  IC50: 27 µM

## C[C@@H](c1ccc(-c2ccc(=O)n(C)c2)cc1)N1CC[C@](CC(C)(C)N(C)S(C)(=O)=O)(c2ccccc2)OC1=O [Example 12, N-methyl-N-(2-methyl-1-((S)-3-((S)-1-(4-(1-methyl-6-oxo-1,6-dihydropyridin-3-yl)phenyl)ethyl)-2-oxo-6-phenyl-1,3-oxazinan-6-yl)propan-2-yl)methanesulfonamide]
[3]; Comparator Compounds
  Biological Test Example 5 (%): 0.4%
[2]; [10]
  IC50: 12.1 µM

## C[C@@H](c1ccc(-c2ccc(=O)[nH]c2)cc1)N1CC[C@](CCCO)(c2ccccc2)OC1=O [Example 29, (R)-6-(3-hydroxypropyl)-3-((S)-1-(4-(6-oxo-1,6-dihydropyridin-3-yl)phenyl)ethyl)-6-phenyl-1,3-oxazinan-2-one]
[2]; [10]
  IC50: 7.5 µM

## C[C@@H](c1ccc(-c2ccc(=O)n(C)c2)cc1)N1CC[C@](CC(C)(C)O)(c2ccc(F)cc2)OC1=O [Example 32, (S)-6-(4-fluorophenyl)-6-(2-hydroxy-2-methylpropyl)3-((S)-1-(4-(1-methyl-6-oxo-1,6-dihydropyridin-3-yl)phenyl)ethyl)-1,3-oxazinan-2-one]
[3]; Examples
  Biological Test Example 5 (%): 12.3%
[2]; [10]
  IC50: 28.7 µM

## C[C@@H](c1ccc(-c2ccc(=O)n(C)c2)cc1)N1CC[C@](CCCO)(c2ccc(F)cc2)OC1=O [Example 33, (R)-6-(4-fluorophenyl)-6-(3-hydroxypropyl)-3-((S)-1-(4-(1-methyl-6-oxo-1,6-dihydropyridin-3-yl)phenyl)ethyl)-1,3-oxazinan-2-one]
[4]
  IC50: 43 µM
[5]
  IC50: 17 µM
[2]; [10]
  IC50: 24.6 µM
[6]
  IC50: > 50 µM

## C[C@@H](c1ccc(-c2ccc(=O)n(C)c2)cc1)N1CC[C@](CC(C)(C)O)(c2ccccc2)OC1=O [Example 37, (S)-6-(2-hydroxy-2-methylpropyl)-3-((S)-1-(4-(1-methyl-6-oxo-1,6-dihydropyridin-3-yl)phenyl)ethyl)-6-phenyl-1,3-oxazinan-2-one]
[4]
  IC50: 43 µM
[3]; Examples
  Biological Test Example 5 (%): 14.6%
[2]
  IC50: 24.8 µM
[6]
  IC50: 48 µM

## CC[C@@H](c1ccc(-c2ccc(=O)n(C)c2)cc1)N1CC[C@](CCO)(c2ccccc2)OC1=O [Example 40, (S)-6-(2-hydroxyethyl)-3-((S)-1-(4-(1-methyl-6-oxo-1,6-dihydropyridin-3-yl)phenyl)propyl)-6-phenyl-1,3-oxazinan-2-one]
[5]
  IC50: 13 µM
[2]
  IC50: 27.9 µM

## CCn1cc(-c2ccc([C@H](C)N3CC[C@](CCCO)(c4ccccc4)OC3=O)cc2)ccc1=O [Example 43, (R)-3-((S)-1-(4-(1-ethyl-6-oxo-1,6-dihydropyridin-3-yl)phenyl)ethyl)-6-(3-hydroxypropyl)-6-phenyl-1,3-oxazinan-2-one]
[2]
  IC50: 10.5 µM

## C[C@@H](c1ccc(-c2ccn(C)c(=O)c2)cc1)N1CC[C@](CCCO)(c2ccccc2)OC1=O [Example 47, (R)-6-(3-hydroxypropyl)-3-((S)-1-(4-(1-methyl-2-oxo-1,2-dihydropyridin-4-yl)phenyl)ethyl)-6-phenyl-1,3-oxazinan-2-one]
[2]; [10]
  IC50: 12.1 µM

## C[C@@H](c1ccc(-c2ccc(=O)n(C)c2)cc1)N1CC[C@](CC(C)(C)C#N)(c2ccccc2)OC1=O [Example 49, 2,2-dimethyl-3-((R)-3-((S)-1-(4-(1-methyl-6-oxo-1,6-dihydropyridin-3-yl)phenyl)ethyl)-2-oxo-6-phenyl-1,3-oxazinan-6-yl)propanenitrile]
[4]
  IC50: 29 µM
[5]
  IC50: 46 µM
[2]; [10]
  IC50: 14.8 µM
[6]
  IC50: 32 µM

## C[C@@H](c1ccc(-c2ccn(C)c(=O)c2)cc1)N1CC[C@](CC(C)(C)C#N)(c2ccccc2)OC1=O [Example 50, 2,2-dimethyl-3-((R)-3-((S)-1-(4-(1-methyl-2-oxo-1,2-dihydropyridin-4-yl)phenyl)ethyl)-2-oxo-6-phenyl-1,3-oxazinan-6-yl)propanenitrile]
[4]
  IC50: 11 µM
[5]
  IC50: 27 µM
[2]
  IC50: 5.1 µM
[6]
  IC50: 14 µM

## CC[C@@H](c1ccc(-c2ccn(C)c(=O)c2)cc1)N1CC[C@](CC(C)(C)O)(c2ccccc2)OC1=O [Example 55, (S)-6-(2-hydroxy-2-methylpropyl)-3-((S)-1-(4-(1-methyl-2-oxo-1,2-dihydropyridin-4-yl)phenyl)propyl)-6-phenyl-1,3-oxazinan-2-one]
[4]
  IC50: 29 µM
[3]; Examples
  Biological Test Example 5 (%): 7.1%
[5]
  IC50: 13 µM
[2]
  IC50: 24.3 µM
[6]
  IC50: > 50 µM

## C[C@@H](c1ccc(-c2ccn(C3CC3)c(=O)c2)cc1)N1CC[C@](CC(C)(C)O)(c2ccccc2)OC1=O [Example 75, 3-{(S)-1-[4-(1-Cyclopropyl-2-oxo-1,2-dihydro-pyridin-4-yl)-phenyl]-ethyl}-(S)-6-(2-hydroxy-2-methyl-propyl)-6-phenyl-[1,3]oxazinan-2-one]
[4]
  IC50: 19 µM
[3]; Examples
  Biological Test Example 5 (%): 15.6%
[5]
  IC50: 24 µM
[6]
  IC50: 23 µM

## C[C@@H](c1ccc(-c2ccc(=O)n(CC3CC3)c2)cc1)N1CC[C@](CC(C)(C)O)(c2ccccc2)OC1=O [Example 76, 3-{(S)1-[4-(1-Cyclopropylmethyl-6-oxo-1,6-dihydro-pyridin-3-yl)-phenyl]-ethyt}-(S)-6-(2-hydroxy-2-methyl-propyl)-6-phenyl-[1,3]oxazinan-2-one]
[4]
  IC50: 4 µM
[7]
  inhibition at 0.1 µM: 17%
[5]
  IC50: 9 µM
[6]
  IC50: 10 µM

## C[C@@H](c1ccc(-c2cc(=O)n(C)cc2F)cc1)N1CC[C@](CC(C)(C)O)(c2ccccc2)OC1=O [Example 79, 3-{(S)-1-[4-(5-Fluoro-1-methyl-2-oxo-1,2-dihydro-pyridin-4-yl)-phenyl]-ethyl}-(S)-6-(2-hydroxy-2-methyl-propyl)-6-phenyl-[1,3]oxazinan-2-one]
[7]
  inhibition at 0.1 µM: 15%

## C[C@@H](c1ccc(-c2ccn(CC(C)(C)O)c(=O)c2)cc1)N1CC[C@](CC(C)(C)O)(c2ccccc2)OC1=O [Example 80, (S)-6-(2-Hydroxy-2-methyl-propyl)-3-((S)-1-{4-[1-(2-hydroxy-2-methylpropyl)-2-oxo-1,2-dihydro-pyridin-4-yl]-phenyl}-ethyl)-6-phenyl-[1,3]oxazinan-2-one]
[7]
  inhibition at 0.1 µM: 37%
[5]
  IC50: 38 µM

## C[C@@H](c1ccc(-c2ccn(CC(C)(C)CO)c(=O)c2)cc1)N1CC[C@](CC(C)(C)O)(c2ccccc2)OC1=O [Example 90, 3-((S)-1-{4-[1-(3-Hydroxy-2,2-dimethyl-propyl)-2-oxo-1,2-dihydro-pyridin-4-yl]-phenyl}-ethyl)-(S)-6-(2-hydroxy-2-methyl-propyl)-6-phenyl-[1,3]oxazinan-2-one]
[7]
  inhibition at 0.1 µM: 4%

## Cc1cc(-c2ccn(C3CC3)c(=O)c2)cc(C)c1CN1CCC(CC(C)(C)O)(c2ccccc2)OC1=O (stereo not drawn) [Example 98]
[7]
  inhibition at 0.1 µM: 67%
